“Also recorded” adds a separate entry of the source.
Columns and labels:
[1] = system: intracerebroventricular CRF-induced anxiogenic-like behavior; details: 20 mg/kg i.p.; cited from earlier work
plasma ACTH = details: 20 mg/kg i.p.; cited from earlier work
[2] = system: cocaine self-administration; experiment: Cocaine self-administration in short access (ShA) and long access (LgA) rats; format: in vivo, rat
[3] = cLogP, Advanced Chemistry Development Software Solaris V4.67; details: from cLogP
[4] = system: cocaine self-administration; details: 30 minute pretreatment; limited (2 hour) daily drug access; cited from earlier work
[5] = cited from earlier work
[6] = system: defensive withdrawal behavior; details: 20 mg/kg i.p.; cited from earlier work
[7] = system: ethanol self-administration; details: cited from earlier work
[8] = in vivo; cited from earlier work

## CCCCN(CC)c1nc(C)nc2c1c(C)c(C)n2-c1c(C)cc(C)cc1C.Cl [antalarmin, N-Butyl-N-ethyl-2,5,6-trimethyl-7-(2,4,6-trimethyl-phenyl)-7H-pyrrolol[2,3-d]pyrimidin-4-amine hydrochloride]
[1]
  intracerebroventricular CRF-induced anxiogenic-like behavior in the elevated plus maze: inhibit
Plasma ACTH
  CRF-induced increases in plasma ACTH levels: blocked
[2]; LgA rats
  slope of linear trend dose function on cocaine intake: −0.32
[2]; LgA rats, 25 mg/kg i.p., 80 minutes before 1 hour session
  decrease of cocaine intake compared to vehicle pretreatment: 13.3%
[2]; LgA rats, 25 mg/kg i.p., hydrochloride, 25 mg/kg
  cocaine intake compared with vehicle: significant decrease; also recorded: significantly decreased
[2]; ShA rats
  slope of linear trend dose function on cocaine intake: 0.01394
[2]; ShA rats, antalarmin 6.25-25 mg/kg i.p., hydrochloride
  cocaine intake compared to vehicle pretreatment: no dose significantly altered cocaine intake; also recorded: without significantly altering
[3]
  more hydrophobic than MPZP (fold): ~30,000 fold
  more hydrophobic than MPZP (orders): approximately 4.5 orders
[4]
  dose-response function of cocaine self-administration: did not alter
[5]
  aqueous solubility: poor
[6]
  spontaneous defensive withdrawal behavior: inhibit
[7]; ethanol-dependent rats, acute withdrawal, 20 mg/kg i.p.
  escalated ethanol intake: dose-dependently reduced
[7]; nondependent rats
  ethanol self-administration: did not influence
[8]
  bioavailability: low

From patent US20100249138A1, “MPZP: A SMALL MOLECULE CORTICOTROPIN-RELEASING FACTOR TYPE 1 RECEPTOR (CRF1) ANTOGONIST” (priority 2007, published 2010)
